Experimental data taken from patent US20020046680A1, “Methine compound, a recording liquid for ink jet, and an ink jet recording method” (priority 2000, published 2002).

Columns and labels:
Type in all cases: physicochemical
[1] = Light fastness of recorded image (xenon light, percentage of colorant remaining); details: xenon light (85000 lux) for 7 days, percentage of colorant remaining at reflection densities 1, 1.5 and 2.0
Experimental: (§1) Images were respectively recorded on a photo glossy paper (Photo glossy paper EX, ink jet paper manufactured by Fuji Photo Film Co., Ltd.) by an ink jet printer (“PM-770C”, manufactured by Seiko Epson Co., Ltd.) using the obtained ink liquids 1 to 9. Hue, light fastness, humidity and heat fastness and ozone gas resistance of the obtained images were evaluated.
Regarding light fastness, an image-receiving material on which images were recorded was irradiated with xenon light (85000 lux) for 7 days using a weather meter (Atlas C. 165), the image densities before and after xenon irradiation were measured by using a reflection densitometer (X-Rite310TR), and the light fastness was evaluated in terms of the percentage of colorant remaining.
(§2) Reflection density was measured at three points which were 1, 1.5 and 2.0, and the case in which the percentage of colorant remaining were 90% or more at any of the three densities was evaluated as A, the case in which the percentage of colorant remaining was less than 90% at one or two points was evaluated as B, and the case in which the percentage of colorant remaining was less than 90% at all densities was evaluated as C.

[2] = Humidity and heat fastness of recorded image (percentage of colorant remaining); details: 80° C., humidity of 70%, 7 days, percentage of colorant remaining at reflection densities 1, 1.5 and 2.0
Experimental: as §1
Further, regarding humidity and heat fastness, image densities before and after storage at a temperature of 80° C. and a humidity of 70% for 7 days were measured in the same manner, and evaluated in terms of the percentage of colorant remaining.
as §2

[3] = Ozone gas resistance of recorded image (percentage of colorant remaining); details: ozone gas 0.5±0.1 ppm, 7 days, room temperature, dark, percentage of colorant remaining at reflection densities 1, 1.5 and 2.0
Experimental: Regarding ozone gas resistance, the photo glossy papers on which the above-described images were formed were stood alone for 7 days in a box having an ozone gas concentration of 0.5±0.1 ppm in which were set at room temperature and in a dark room, and image densities before and after storage under ozone gas atmosphere were measured by using a reflection densitometer (X-Rite310TR), and evaluated in terms of the percentage of colorant remaining. The fore-mentioned reflection density was measured at three points which were 1, 1.5 and 2.0. The ozone gas concentration in the box was measured using an ozone gas monitor manufactured by APPLICS (Model OZG-EM-01). The case in which the percentage of colorant remaining were 70% or more at any of the densities was evaluated as A, the case in which the percentage of colorant remaining was less than 70% at one or two points was evaluated as B, and the case in which the percentage of colorant remaining was less than 70% at all densities was evaluated as C. It was evaluated at three stages.

For `Cc1ccc2[nH]c3cc4c(=O)c5cc(C)ccc5[nH]c4cc3c(=O)c2c1` [C. I. Pigment Red 122], the Light fastness [1] was “A (the percentage of colorant remaining were 90% or more at any of the three densities)”, the “Humidity and heat fastness” value [2] was “A (the percentage of colorant remaining were 90% or more at any of the three densities)” and the ozone resistance [3] was “A (the percentage of colorant remaining were 70% or more at any of the densities)”.
